Assay results: PubChem BioAssay (NCI)
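Cultured in 96-well plates, cells were exposed to test compound for 48 hours across five concentrations. TGI: total growth inhibition.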

How the values were obtained:
Test in all cases: inhibition of tumour cell growth, NCI panel, 48 h
MALME-3M melanoma = system: MALME-3M melanoma
HOP-92 NSCLC = system: HOP-92 NSCLC
SF-295 CNS = system: SF-295 CNS
SN12C renal = system: SN12C renal
SF-539 CNS = system: SF-539 CNS
CAKI-1 renal = system: CAKI-1 renal
SNB-19 CNS = system: SNB-19 CNS
HCT-116 colon = system: HCT-116 colon
SK-MEL-28 melanoma = system: SK-MEL-28 melanoma
MCF7 breast = system: MCF7 breast
MDA-MB-435 = system: MDA-MB-435
SK-MEL-2 melanoma = system: SK-MEL-2 melanoma
MDA-N = system: MDA-N
PC-3 prostate = system: PC-3 prostate
DU-145 prostate = system: DU-145 prostate

Row | Compound | TGI (MALME-3M melanoma) | TGI (HOP-92 NSCLC) | TGI (SF-295 CNS) | TGI (SN12C renal) | TGI (SF-539 CNS) | TGI (CAKI-1 renal) | TGI (SNB-19 CNS) | TGI (HCT-116 colon) | TGI (SK-MEL-28 melanoma) | TGI (MCF7 breast) | TGI (MDA-MB-435) | TGI (SK-MEL-2 melanoma) | TGI (MDA-N) | TGI (PC-3 prostate) | TGI (DU-145 prostate)
1 | CCOC(OCC)c1ccc(/C=C/c2cc(OC)c(OC)c(OC)c2)cc1 | 43.8 µM | 64.7 µM | 40.4 µM | 36.9 µM | 29.8 µM | 74.3 µM | > 100 µM | 30.7 µM | 56.7 µM | – | – | – | – | – | –
2 | COC(=O)C(/C(=N/N)C(=O)Nc1cc(Cl)c(Cl)cc1Cl)c1nc2ccc(Cl)cc2[nH]c1=O (centres undefined) | > 100 µM | > 100 µM | > 100 µM | > 100 µM | > 100 µM | > 100 µM | – | > 100 µM | > 100 µM | > 100 µM | > 100 µM | > 100 µM | > 100 µM | > 100 µM | –
3 | COc1ccc(Nc2nc(N)c(C(=O)c3ccc(OC)cc3)s2)cc1 | – | > 86.5 µM | 40.6 µM | > 64.5 µM | 23 µM | > 48.6 µM | > 49.5 µM | > 28.9 µM | > 68.6 µM | > 100 µM | 0.208 µM | > 55.4 µM | – | 22.1 µM | 6.94 µM
4 | COC1=CC(C2c3cc4c(cc3[C@@H](Nc3ccc([N+](=O)[O-])cc3)C3COC(=O)[C@H]23)OCO4)=CC(=O)C1=O (some centres undefined) | 26.4 µM | > 53 µM | 7.47 µM | 7.59 µM | 6.05 µM | 25.6 µM | > 86.5 µM | 27.5 µM | > 94.8 µM | – | – | 92 µM | – | – | –
5 | COC(=O)/C(C#N)=C1\NC(=O)CC(c2ccccc2)C1C#N (centres undefined) | > 100 µM | > 100 µM | > 100 µM | > 100 µM | > 100 µM | > 100 µM | > 100 µM | > 100 µM | > 100 µM | > 100 µM | – | > 100 µM | > 100 µM | > 100 µM | > 100 µM
6 | CC(=N/NC(=S)Nc1c(C)n(C)n(-c2ccccc2)c1=O)/C(C)=N\NC(=S)Nc1c(C)n(C)n(-c2ccccc2)c1=O | > 100 µM | > 100 µM | > 100 µM | – | > 100 µM | > 100 µM | > 100 µM | > 100 µM | – | – | > 100 µM | > 100 µM | – | > 100 µM | > 100 µM
7 | CC1(C)[C@@H]2C[C@H]1C(Cc1ccc(C[C@H]3c4cc(-c5ccccn5)ncc4[C@H]4C[C@@H]3C4(C)C)cc1)c1cc(-c3ccccn3)ncc12 (some centres undefined) | 76.6 µM | – | > 100 µM | 23.3 µM | 7.13 µM | > 100 µM | > 100 µM | 18.3 µM | 79.7 µM | > 100 µM | 23.3 µM | > 100 µM | – | 22.8 µM | > 100 µM
8 | Cc1cc(NC(=O)C(=O)Cc2cnc3ccccc3n2)c(S(=O)(=O)O)cc1Cl | > 100 µM | > 100 µM | > 100 µM | > 100 µM | > 100 µM | > 100 µM | > 100 µM | > 100 µM | > 100 µM | > 100 µM | > 100 µM | > 100 µM | – | > 100 µM | > 100 µM
9 | COC(=O)[C@H]1C=C[C@@H](C)n2c(=O)c3ccccc3c(=O)n21 | > 100 µM | > 100 µM | > 100 µM | > 100 µM | > 100 µM | > 100 µM | > 100 µM | > 100 µM | > 100 µM | – | – | > 100 µM | – | – | –
10 | COC(C/C(=C/CO[Si](C(C)C)(C(C)C)C(C)C)C(=O)Nc1ccccc1I)OC | 31.8 µM | 61.7 µM | 28.2 µM | > 100 µM | 48.4 µM | > 100 µM | 42.5 µM | 39.8 µM | > 100 µM | – | > 100 µM | 31.1 µM | > 100 µM | 62.2 µM | > 100 µM
11 | CCOC(=O)c1nnsc1NC(=O)Nc1ccc(Cl)cc1 | > 100 µM | – | – | > 100 µM | – | – | > 100 µM | 70.5 µM | > 100 µM | – | > 100 µM | > 100 µM | > 100 µM | > 100 µM | > 100 µM
12 | Cn1c2ccccc2c(=O)c2c(O)cc3c(c21)C=CC1(CCCC1)O3 | > 100 µM | > 100 µM | > 100 µM | > 100 µM | > 100 µM | > 100 µM | > 100 µM | > 100 µM | > 100 µM | > 100 µM | > 100 µM | > 100 µM | – | > 100 µM | > 100 µM
13 | O=C1C(Cl)C(c2ccc(Cl)cc2)N1n1cnc2ccccc2c1=O (centres undefined) | > 100 µM | – | > 100 µM | > 100 µM | – | > 100 µM | > 100 µM | > 100 µM | > 100 µM | – | – | > 100 µM | – | – | –
14 | CC(=O)OC1OC2C(NC(=O)OC(C)(C)C)C1CC2(OCc1ccccc1)OCc1ccccc1 (centres undefined) | 20.8 µM | 30.3 µM | > 91.5 µM | 75.2 µM | 33.8 µM | > 100 µM | > 100 µM | 31.6 µM | 57.2 µM | – | – | 38.9 µM | – | – | –
15 | NC(=O)c1csc(CCCCCCc2nc(C(N)=O)cs2)n1 | > 100 µM | > 100 µM | > 100 µM | > 100 µM | > 100 µM | > 100 µM | > 100 µM | > 100 µM | > 100 µM | – | – | > 100 µM | – | – | –
16 | CO/C(=N\N=C\c1ccc(OC)cc1OC)c1ccncc1 | > 10 µM | – | > 10 µM | > 10 µM | > 10 µM | – | > 10 µM | > 10 µM | > 10 µM | > 10 µM | – | > 10 µM | – | > 10 µM | –
17 | CC1=CC2(O)OC3(CC2=C(C)C)C(C)CCC13 (centres undefined) | > 100 µM | > 100 µM | > 100 µM | > 100 µM | > 100 µM | > 100 µM | > 100 µM | > 100 µM | – | > 100 µM | > 100 µM | > 100 µM | > 100 µM | – | > 100 µM
18 | COc1ccc(C2CCC(Cl)(OC)CC2C=O)cc1 (centres undefined) | > 100 µM | > 100 µM | > 100 µM | > 100 µM | > 100 µM | > 100 µM | > 100 µM | > 100 µM | > 100 µM | – | – | > 100 µM | – | – | –
19 | Cc1nccc2c1cnc1ccnn12 | > 100 µM | > 100 µM | – | > 100 µM | > 100 µM | > 100 µM | > 100 µM | > 100 µM | > 100 µM | – | – | > 100 µM | – | – | –
20 | CCOC(=O)C1=C(O)c2ccccc2C(=O)C1=O | > 100 µM | > 100 µM | > 100 µM | > 100 µM | > 100 µM | > 100 µM | > 100 µM | > 100 µM | > 100 µM | – | – | > 100 µM | – | – | –
21 | CC(=O)c1c(O)ccc2c1CC(CC=O)O2 (centres undefined) | > 100 µM | > 100 µM | > 100 µM | > 100 µM | > 100 µM | > 100 µM | > 100 µM | 41.4 µM | > 100 µM | – | – | – | – | – | –
22 | Cn1c(=O)c2c(nc(C[N+]3([O-])CCOCC3)n2C)n(C)c1=O | > 100 µM | > 100 µM | – | > 100 µM | > 100 µM | > 100 µM | > 100 µM | > 100 µM | > 100 µM | – | – | > 100 µM | – | – | –
23 | O=C(O)c1cc(-c2ccccc2O)nc2ccccc12 | > 100 µM | – | > 100 µM | > 100 µM | > 100 µM | > 100 µM | > 100 µM | > 100 µM | > 100 µM | – | – | > 100 µM | – | – | –
24 | COc1ccc(C2CC(=O)Oc3ccccc3O2)cc1 (centres undefined) | – | – | > 100 µM | > 100 µM | > 100 µM | – | > 100 µM | > 100 µM | > 100 µM | > 100 µM | > 100 µM | – | > 100 µM | > 100 µM | > 100 µM
25 | CCOC(=O)c1nc2ccc(Cl)cc2c2c1CCO2 | > 100 µM | – | > 100 µM | > 100 µM | > 100 µM | > 100 µM | > 100 µM | > 100 µM | > 100 µM | – | – | – | – | – | –
26 | COc1ccc(/C=C2\N=C(c3ccccc3)N(Nc3nnc(NN4C(=O)/C(=C/c5ccc(OC)cc5)N=C4c4ccccc4)c4ccccc34)C2=O)cc1 | – | > 100 µM | > 100 µM | > 100 µM | > 100 µM | – | > 100 µM | > 100 µM | > 100 µM | – | – | – | – | – | –
27 | Cc1cc(S(=O)(=O)Nc2nc(N)nc(N3CCOCC3)n2)c(SCC(=O)O)cc1Cl | > 10 µM | > 10 µM | > 10 µM | > 10 µM | > 10 µM | > 10 µM | > 10 µM | > 10 µM | > 10 µM | > 10 µM | – | > 10 µM | > 10 µM | > 10 µM | > 10 µM
28 | COc1ccc(OC)c(NC(=O)C(=O)Nn2c(=S)[nH]c3ccccc3c2=O)c1 | > 100 µM | > 100 µM | > 100 µM | > 100 µM | > 100 µM | > 100 µM | > 100 µM | > 100 µM | > 100 µM | > 100 µM | > 100 µM | > 100 µM | > 100 µM | > 100 µM | –
29 | Nc1nc(N)nc(-c2cnccn2)n1 | > 100 µM | > 100 µM | > 100 µM | > 100 µM | > 100 µM | > 100 µM | > 100 µM | > 100 µM | > 100 µM | > 100 µM | > 100 µM | > 100 µM | – | > 100 µM | > 100 µM
30 | NC(=O)C12C3C4C1C1C2C3C41C(N)=O (centres undefined) | – | > 100 µM | > 100 µM | > 100 µM | > 100 µM | > 100 µM | > 100 µM | > 100 µM | > 100 µM | – | – | > 100 µM | – | – | –
